For one data set, the system named is WSU-DLCL2 cells. The data set can be described thus: Anti-proliferative combination matrix, Cell Titer-Glo, WSU-DLCL2. The note with it: for synergy characterization (Chou-Talalay): drug combined with Compound 44; for enhancement of Compound 44 potency (fold IC50 shift): drug combined with Compound 44, top dose of drug, 4 days Compound 44 then 3 days combination. For orientation: In ATP-based viability assays light output follows the ATP content of the culture.

The test system of the next data set is Toledo cells. The data set can be described thus: Anti-proliferative combination matrix, Cell Titer-Glo, Toledo. The note with it: Toledo (WT EZH2); for combination benefit: drug combined with Compound 44, 6 days Compound 44 then 5 days combination.
Data set [1] concerns WSU-DLCL2 human lymphoma cells. Put plainly: Cell viability of WSU-DLCL2 cells, Guava ViaCount and flow cytometry. Format: cell-based. The following applies: for cell viability, combination with Compound 44: WSU-DLCL2. As to the method: The dosage schedule is depicted in FIG. 1A. […] After 4 days, cell viability was determined using Millipore Guava ViaCount Reagent and flow cytometry analysis.
Cell viability was determined by staining with Millipore Guava ViaCount Reagent and then analyzed by flow cytometry.
(§1) Cell viability was determined 4 days later using Millipore Guava ViaCount reagent and flow cytometry analysis. Percentage of cell viability was normalized to percentage of the DMSO-treated sample.
On the technique in general: Flow cytometry measures light scatter and fluorescence of single cells or particles in a stream.

For another data set, the system named is SU-DHL-10 cells. The data set can be described thus: Anti-proliferative combination matrix, Cell Titer-Glo, SU-DHL-10. The following applies: for synergy characterization (Chou-Talalay): drug combined with Compound 44; for enhancement of Compound 44 potency (fold IC50 shift): drug combined with Compound 44, top dose of drug, 4 days Compound 44 then 3 days combination.

The subject of data set [2] is SUDHL10 human lymphoma cells. The class given is in vivo. The note with it: 28 days. As to the method:
(§2) The animals were fed ad libitum water (reverse osmosis 1 ppm Cl) and NIH 31 Modified and Irradiated Lab Diet® consisting of 18.0% crude protein, 5.0% crude fat, and 5.0% crude fiber. The mice were housed on irradiated Enrich-o'cobs™ bedding in static microisolators on a 12-hour light cycle at 20-22° C. (68-72° F.) and 40-60% humidity. All procedures comply with the recommendations of the Guide for Care and Use of Laboratory Animals with respect to restraint, husbandry, surgical procedures, feed and fluid regulation, and veterinary care.
(§3) Human lymphoma cell lines were harvested during mid-log phase growth, and resuspended in PBS with 50% Matrigel™ (BD Biosciences). Each mouse received 1×10^7 cells (0.2 mL cell suspension) subcutaneously in the right flank. Tumors were calipered in two dimensions to monitor growth as the mean volume approached the desired 80-120 mm^3 range. Tumor size, in mm^3, was calculated from: […]
(§4) Compounds of Formula (IIa) were stored at room temperature and protected from light. On each treatment day, a fresh compound formulations were prepared by suspending the powders in 0.5% sodium carboxymethylcellulose (NaCMC) and 0.1% Tween® 80 in deionized water. […] Formulations were stored away from light at 4° C. prior to administration.
Several chemotherapeutica were used in parallel to Epizyme compounds. […]
(§5) Mice were treated at compound doses ranging from 75-600 mg/kg and at TID (3 times a day every 8 h), BID (twice a day every 12 h) or QD (once a day) schedules for various amount of days by oral gavage or injections via the intravenous, intraperitoneal or subcutaneous routes. Each dose was delivered in a volume of 0.2 mL/20 g mouse (10 mL/kg), and adjusted for the last recorded weight of individual animals. […]
Treatment efficacy was determined on the last treatment day. MTV(n), the median tumor volume for the number of animals, n, evaluable on the last day, was determined for each group. […] First, the difference between the MTV(n) of the designated control group and the MTV(n) of the drug-treated group is expressed as a percentage of the MTV(n) of the control group: […]

Data set [3] can be described thus: Compound 44 plasma concentration in WSU-DLCL2 tumor-bearing mice, LC-MS/MS. The following applies: 225 mg/kg BID.
Procedure: On several days during the study mice were sampled in a pre-specified fashion. Sampling included non-terminal bleeds (0.25 mL) from the mandibular vein without anesthesia and full volume blood collection via terminal cardiac puncture under CO2 anesthesia. Blood samples were processed for plasma, with K2-EDTA as anti-coagulant. The plasma samples were frozen at −80° C. and stored prior to bioanalysis of compound levels.
Plasma samples were obtained on day 28 at 5 minutes prior to the last dose (“trough”) and 3 hours after the last dose (“post”).
The next data set has as its system OCI-LY19 cell line. The data set can be described thus: Cell viability of OCI-LY19 cells, Guava ViaCount and flow cytometry. Format: cell-based, human. The note with it: OCI-LY19 (wild-type EZH2); for cell viability: single agent. As to the method: as §1
The test system of the next data set is H3K27me3. Put plainly: Histone methylation status in WSU-DLCL2 xenograft tumors, Western blot and ELISA. The class given is in vivo, SCID mice. The note with it: after 28 days of treatment. As for the experimental part:
Histones were extracted from tumor samples as described above. […] The plates were sealed and incubated overnight at 4° C. The following day, plates were washed 3× with 300 ul/well PBST (PBS+0.05% Tween 20; 10×PBST, KPL #51-14-02) on a Bio Tek plate washer. Plates were blocked with 300 ul/well of diluent (PBS+2% BSA+0.05% Tween 20), incubated at RT for 2 hours, and washed 3× with PBST. All antibodies were diluted in diluent. […] Plates were washed 4× with PBST. For detection, 100 ul/well of TMB substrate (BioFx Laboratories, #TMBS) was added and plates incubated in the dark at RT for 5 min. […] Absorbance at 450 nm was read on SpectaMax M5 Microplate reader.
On the technique in general: Immunoblotting shows a protein as a band on a membrane.

In another data set the test system is RL cells. The data set can be described thus: Cell viability of RL cells, Guava ViaCount and flow cytometry. The following applies: RL cells (EZH2 Y641N); for cell viability: single agent. The class given is cell-based, human. As to the method: as §1
Data set [4] deals with SUDHL6 human lymphoma cells. The data set can be described thus: Efficacy study in SUDHL6 xenograft model. The note with it: Compound 44 alone over the 28 day treatment. Format: in vivo, athymic nude mice. As for the experimental part:
as §2, §3, §5

For data set [5], the system named is WSU-DLCL2 human lymphoma cells. Put plainly: Efficacy study in WSU-DLCL2 xenograft model. The note with it: 28 days. Format: in vivo. As to the method: as §2, §3, §4
Several chemotherapeutica were used in parallel to Epizyme compounds. Cyclophosphamide (Baxter, Lot #016591), was reconstituted to 20 mg/mL with sterile saline and stored at 4° C. A fresh dosing solution was prepared for each dose by dilution with saline. Doxorubicin (Doxorubicin Meiji®, Meiji Pharmaceutical Co. Ltd., 1 mg/mL) was stored at 4° C. and diluted with saline on each treatment day. Vincristine (Hospira, Inc., 1 mg/mL) was diluted with saline on each treatment day. Prednisone (Boehringer Ingelheim GmbH, 1 mg/mL) was diluted with PBS at the beginning of each 5-day dosing cycle.
Mice were treated at compound doses ranging from 75-600 mg/kg and at TID (3 times a day every 8 h), BID (twice a day every 12 h) or QD (once a day) schedules for various amount of days by oral gavage or injections via the intravenous, intraperitoneal or subcutaneous routes. Each dose was delivered in a volume of 0.2 mL/20 g mouse (10 mL/kg), and adjusted for the last recorded weight of individual animals. The maximal treatment length was 28 days.
Treatment efficacy was determined on the last treatment day. MTV(n), the median tumor volume for the number of animals, n, evaluable on the last day, was determined for each group. Percent tumor growth inhibition (% TGI) can be defined several ways. First, the difference between the MTV(n) of the designated control group and the MTV(n) of the drug-treated group is expressed as a percentage of the MTV(n) of the control group: […]
Another way of calculating % TGI is taking the change of the tumor size from day 1 to day n into account with n being the last treatment day.
SCID mice were subcutaneously injected with 1×10^7 WSU-DLCL2 human lymphoma cells. […] Tumor volume was measured twice a week until the endpoint of 28 days.

The mark [6] stands for this setting: Compound 44 for 4 days, then Compound 44 plus agent for 4 days (FIG. 1A schedule).

Entries after “also recorded” stand apart in the source; their conditions may differ. Like-named read-outs stand apart in the source and are kept apart here.

Procedure for SU-DHL-10 cells: (§6) The WSU-DLCL2 and SU-DHL-10 contain the Y641 EZH2 mutation, and the Toledo cell line contains WT EZH2.
(§7) Increasing doses of drugs were then added to the plates. […] After incubation for an additional 3 days cell viability of WSU-DLCL2 or SU-DHL-10 was measured using Promega Cell Titer-Glo reagent followed by luminescence detection. After 5 days viability of Toledo cells was measured using Promega Cell Titer-Glo reagent followed by luminescence detection.
(§8) First, raw luminescence values were converted to percent inhibition or fraction affected (Fa) calculated using controls for maximum inhibition and DMSO treated cells for minimum inhibition control located on each plate. Percent inhibition values for each constant ratio of compound combinations were entered into Calcusyn to determine the combination index values.
Procedure for Toledo cells: as §6, §7, §8

As for `COc1cccc2c1C(=O)c1c(O)c3c(c(O)c1C2=O)C[C@@](O)(C(=O)CO)C[C@@H]3O[C@H]1C[C@H](N)[C@H](O)[C@H](C)O1` [Doxorubicin], the “synergy characterization (Chou-Talalay)” value in the data set on WSU-DLCL2 cells and with SU-DHL-10 cells was “Synergism” throughout. Also, the combination benefit result in the data set with Toledo cells is “no combination benefit; also recorded: No enhancement”. Moreover, in [1] (setting [6]), the “cell viability, combination with Compound 44” value (“cell viability, combination” for short) is “did not exhibit reduced cell viability”.
Take `CCN(c1cc(-c2ccc(CN3CCOCC3)cc2)cc(C(=O)NCc2c(C)cc(C)[nH]c2=O)c1C)C1CCOCC1` [Compound 44, N-((4,6-dimethyl-2-oxo-1,2-dihydropyridin-3-yl)methyl)-5-(ethyl (tetrahydro-2H-pyran-4-yl)amino)-4-methyl-4′-(morpholinomethyl)-[1,1′-biphenyl]-3-carboxamide]: the “% TGI from day 7” value in data set [2] (Compound 44 125 mg/kg BID) is 57%; in [2] (Compound 44 250 mg/kg BID), 113%; in data set [2] (Compound 44 500 mg/kg BID) it was 115%; in data set [5] (Compound 44 150 mg/kg TID), 86%; in data set [5] (Compound 44 225 mg/kg BID) it was 80%; in data set [5] (Compound 44 300 mg/kg BID), 67%. Also, the “% TGI from day 7” value in data set [5] (Compound 44 600 mg/kg QD) was 70%. Moreover, the “Compound 44 plasma level, with CHOP vs single agent” value is “significantly increased” in data set [3] (day 28, 3 hours after the last dose) and “not significantly different” in [3] (day 28, trough (5 minutes prior to the last dose)). In addition, in the data set with Toledo cells (Compound 44 alone), the “sensitivity of cell viability” value is “no sensitivity”. In addition, the cell viability entry in the data set on OCI-LY19 cell line is given as “does not affect cell viability; also recorded: do not show sensitivity”; in data set [1] (single agent, increasing concentrations, WSU-DLCL2 (EZH2 Y641F)), “decrease in cell viability; also recorded: reduction of cell growth”; in the data set with RL cells, “does not result in a reduction in cell viability”. Further, the “methylation of H3K27 in tumors, ELISA” value in the data set on H3K27me3 (H3K27me3 normalized to total H3) is listed as “inhibited”. Moreover, the “methylation of H3K27 in tumors, Western blot” value with H3K27me3 (all dosages and dosing schedules) is recorded as “inhibited”. The single agent efficacy result in [4] is “not observed”. For the same compound, the “% TGI from day 1” value is on record as 73% in data set [5] (Compound 44 150 mg/kg TID), 71% in data set [5] (Compound 44 225 mg/kg BID), 57% in data set [5] (Compound 44 300 mg/kg BID) and 58% in data set [5] (Compound 44 600 mg/kg QD).
Consider `CO[C@H]1C[C@@H]2CC[C@@H](C)[C@@](O)(O2)C(=O)C(=O)N2CCCC[C@H]2C(=O)O[C@H]([C@H](C)C[C@@H]2CC[C@@H](OCCO)[C@H](OC)C2)CC(=O)[C@H](C)/C=C(\C)[C@@H](O)[C@@H](OC)C(=O)[C@H](C)C[C@H](C)/C=C/C=C/C=C/1C` [Everolimus], for which the results for the “synergy characterization (Chou-Talalay)” value with WSU-DLCL2 cells and with SU-DHL-10 cells were “very strong synergism” and “Strong synergism”, respectively. Further, the combination benefit result in the data set on Toledo cells was “no combination benefit; also recorded: No enhancement”.
In the case of `C[C@]12C=CC(=O)C=C1CC[C@@H]1[C@@H]2[C@@H](O)C[C@@]2(C)[C@H]1CC[C@]2(O)C(=O)CO` [Prednisolone], the “enhancement of Compound 44 potency (fold IC50 shift)” value in the data set with WSU-DLCL2 cells is 7 fold; in the data set on SU-DHL-10 cells, 3 fold. Moreover, the combination benefit result in the data set with Toledo cells is “no combination benefit; also recorded: No enhancement”. Further, the “cell viability, combination” value in the data set on OCI-LY19 cell line (FIG. 1A schedule) is “does not have an additional or synergistic effect on cell viability”; in [1] (Compound 44 first, then agent alone (FIG. 1B schedule)), “additional reduction of cell viability”; in [1] (setting [6]) it was “synergistic reduction in cell viability; also recorded: additional reduction of cell growth; also recorded: reduced cell viability”; in data set [1] (agent first, then Compound 44 plus agent (FIG. 1C schedule)), “did not cause a synergistic effect on cell viability”; in the data set on RL cells (FIG. 1A schedule), “synergistic effect”. Further, the cell viability entry is “show sensitivity” with OCI-LY19 cell line and “resistant” in the data set with RL cells.
`Nc1ccn([C@@H]2O[C@H](CO)[C@@H](O)[C@@H]2O)c(=O)n1` [AraC]: the “synergy characterization (Chou-Talalay)” value in the data set on WSU-DLCL2 cells and with SU-DHL-10 cells was “Synergism” each time. Besides, the combination benefit result in the data set with Toledo cells is given as “no combination benefit; also recorded: No enhancement”.
Turning to `N.N.[Cl][Pt][Cl]` [Cisplatin], the “synergy characterization (Chou-Talalay)” value was “Synergism” in the data set on WSU-DLCL2 cells and “synergism” in the data set on SU-DHL-10 cells. Also, the combination benefit result with Toledo cells is listed as “no combination benefit; also recorded: No enhancement”.
`C[C@@H]1C[C@H]2[C@@H]3CCC4=CC(=O)C=C[C@]4(C)[C@@]3(F)[C@@H](O)C[C@]2(C)[C@@]1(O)C(=O)CO` [Dexamethasone]: the “enhancement of Compound 44 potency (fold IC50 shift)” value is 17 fold in the data set with WSU-DLCL2 cells and 3 fold in the data set with SU-DHL-10 cells.
Turning to `CC[C@]1(O)C[C@H]2CN(CCc3c([nH]c4ccccc34)[C@@](C(=O)OC)(c3cc4c(cc3OC)N(C=O)[C@H]3[C@@](O)(C(=O)OC)[C@H](OC(C)=O)[C@]5(CC)C=CCN6CC[C@]43[C@@H]65)C2)C1` [Vincristine], in data set [1] (setting [6]), the “cell viability, combination” value was “reduced cell viability at the highest concentration Compound 44”.

These data come from patent US11370781B2, “Combination therapy for treating cancer” (Epizyme, Inc., priority 2012, dated 2022).
